22 molecules from patent publication US9732061B2, “Cinnoline derivatives useful as CB-1 receptor inverse agonists” (Janssen Pharmaceutica NV, priority 2015, dated 2017) can be followed below.

SMILES strings stand for the structures. Where only a bound is given, the exact number is not on record here.

Assay [1] deals with Human CB2R (Cannabanoid receptor 2) (Homo sapiens (Human), UniProt P34972). As to the kind of experiment: CB-2 in vitro cAMP (HTRF) assay. As to conditions: HEK-293 cells stably transfected with human CB2R, 250 nM Forskolin, mean where tested more than once. It is filed as cell-based. From the text:
(§1) CB1 and CB2 receptors are Gi-coupled GPCR. Activation of CB1 and CB2 receptors results in a decrease in cAMP production. An inverse agonist of the CB1 or CB2 receptor results in the opposite effect, an increase of cAMP production. The principle of this assay is based on HTRF® technology (Homogeneous Time-Resolved Fluorescence). The method is a competitive immunoassay between native cAMP produced by cells and the cAMP labeled with the fluorophore d2. The tracer binding is quantified by a Mab anti-cAMP labeled with Eu3+TBP-NHS Cryptate (supplied as part of the assay kit). The specific signal (i.e. energy transfer) is inversely proportional to the concentration of cAMP in the standard or sample.
(§2) Biological Example 1: CB-1 and CB-2 In Vitro Assay
(§3) Human CB1R (Cannabanoid receptor 1) was stably transfected in HEK-293 cells (DiscoveRx, cat: 93-0200C1). Human CB2R (Cannabanoid receptor 2) was stably transfected in HEK-293 cells (DiscoveRx, cat: 93-0201C1). Cell cultures were maintained in media: DMEM (Invitrogen Cat#12430-054) supplemented with 10% HI FBS (Invitrogen Cat#16140-071), 1% L-glutamine (Invitrogen Cat#25030-081), 0.2 mg/ml Hygromycin B (Invitrogen Cat#10687-010), 600 μg/mL G418 (Invitrogen Cat#10131-035), and 1×Penn/Strep (Invitrogen 15140-122). After cell expansion, aliquots were cryo-stored in media containing 5% DMSO (Pierce Cat#20684).
(§4) One day prior to experiments media was warmed to 37° C. and the cryo-stored cells were thawed in a 37° C. water bath. The cells were then added to media (10× volume) and the mixture was centrifugated at 1000 RPM for 5 min. The supernate was removed and the cells were re-suspended in media. A sample of the cell suspension was evaluated on a Cedex XS automated cell counter (Innovatis Systems) to determine viable cells/ml. Additional media was added to the cells to achieve a final cell density of 4E5 cells/mL. The cells were then plated into 384 well PDL white solid bottom plates (Greiner, Cat#781945) at 20 μL per well using a Multidrop (Thermo Scientific). Cells were removed from Row P (location of cAMP standards). Two columns of cells were plated into a clear bottom 384 well PDL coated plate (Greiner, Cat#781944) to view confluence the day of the assay. The cell plates were lidded and stored for 15 minutes in a hood, then transferred to an incubator (37° C., 5% CO2, 95% humidity) overnight.
(§5) DMSO was added to all wells of 384 well V bottom polystyrene plate (Greiner, Cat#781280) except to columns 1 and 13, rows O and P and wells M13-M23 and N13-N23. Test compounds (60 μL, 10 mM) were added to Column 1 and 13 (A1 through N1 and A13 through L13). Test compounds were serially diluted 1/3 by transferring and mixing 20 μl sample with 40 μL DMSO.
(§6) DMSO (40 μL) was added to wells of 384 well V bottom polystyrene plate: O2 through O11, M14 through M23, N14 through N23, and O14 through O23. AM630 (also known as [6-iodo-2-methyl-1-[2-(4-morpholinyl)ethyl]-1H-indol-3-yl](4-methoxyphenyl)-methanone, Cayman Chemical, Cat#10006974) (60 μL, 10 mM) was added to O1; and 1-(2,4-dichlorophenyl)-7-[(4-fluorophenyl)methylene]-4,5,6,7-tetrahydro-N-1-piperidinyl-1H-indazole-3-carboxamide (60 μL, 10 mM) was added to N13. The control was serially diluted 1/3 by transferring and mixing 20 μl sample with 40 μL DMSO. This process resulted 11 doses per control, 10 mM to […].
(§7) Cells plated the day prior to the assay in clear bottom plates were viewed on an inverse microscope to ensure confluency in the range of 60-75%. […]
In general terms: In TR-FRET formats the signal depends on donor and acceptor labels being close together.

Assay [2] has as its target Human CB1R (Cannabanoid receptor 1) (Homo sapiens (Human), UniProt P21554). As to the kind of experiment: CB-1 in vitro cAMP (HTRF) assay. It is filed as cell-based. As to conditions: HEK-293 cells stably transfected with human CB1R, 250 nM Forskolin, mean where tested more than once.
Text: as §1, §2, §3, §4, §5, §6, §7

Sequence of Human CB2R (Cannabanoid receptor 2) (P34972 whole entry): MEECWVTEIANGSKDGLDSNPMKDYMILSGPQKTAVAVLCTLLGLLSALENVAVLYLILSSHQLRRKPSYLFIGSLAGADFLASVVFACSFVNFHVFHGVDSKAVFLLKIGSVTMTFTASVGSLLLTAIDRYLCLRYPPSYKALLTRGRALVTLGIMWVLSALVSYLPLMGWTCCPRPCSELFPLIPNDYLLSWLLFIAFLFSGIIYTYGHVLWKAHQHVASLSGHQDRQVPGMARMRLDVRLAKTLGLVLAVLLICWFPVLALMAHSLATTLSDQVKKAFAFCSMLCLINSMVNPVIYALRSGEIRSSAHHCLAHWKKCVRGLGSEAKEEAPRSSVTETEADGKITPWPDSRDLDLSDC
Sequence of Human CB1R (Cannabanoid receptor 1) (P21554 whole entry): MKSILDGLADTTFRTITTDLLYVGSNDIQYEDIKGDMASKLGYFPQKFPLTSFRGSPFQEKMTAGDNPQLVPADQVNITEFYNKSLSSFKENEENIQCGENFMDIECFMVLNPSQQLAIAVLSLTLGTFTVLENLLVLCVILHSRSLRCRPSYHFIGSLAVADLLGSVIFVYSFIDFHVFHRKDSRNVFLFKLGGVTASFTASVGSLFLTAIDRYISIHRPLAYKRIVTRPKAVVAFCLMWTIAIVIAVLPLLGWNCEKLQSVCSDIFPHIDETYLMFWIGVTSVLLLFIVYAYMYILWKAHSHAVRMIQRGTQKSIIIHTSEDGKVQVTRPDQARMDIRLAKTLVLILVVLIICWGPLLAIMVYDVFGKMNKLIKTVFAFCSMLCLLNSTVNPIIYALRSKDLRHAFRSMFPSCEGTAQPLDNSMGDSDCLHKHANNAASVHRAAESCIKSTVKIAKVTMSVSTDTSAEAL

Regarding `O=C(O)c1ccc(S(=O)(=O)N2CCC(Nc3cnnc4ccc(C(c5ccc(Cl)cc5)c5ccc(Cl)cc5)cc34)CC2)cc1` [Compound 10, 4-(4-(6-(bis(4-chlorophenyl)methyl)cinnolin-4-ylamino)piperidin-1-ylsulfonyl)benzoic acid], the values for the 50% effective concentration (EC50) in assay [1] and in assay [2] were 1.48 µM and 0.302 µM, respectively.
For the molecule `O=C(O)c1ccc(N2CCC(Nc3cnnc4ccc(C(c5ccc(Cl)cc5)c5ccc(Cl)cc5)cc34)CC2)cc1` [Compound 17, 4-(4-(6-(bis(4-chlorophenyl)methyl)cinnolin-4-ylamino)piperidin-1-yl)benzoic acid], the half-maximal effective concentration (EC50) in assay [1] was 8.1 µM; in assay [2], 10.1 µM.
With `O=C(O)c1ccc(CCN2CCC(Nc3cnnc4ccc(C(c5ccc(Cl)cc5)c5ccc(Cl)cc5)cc34)CC2)cc1` [Compound 31, 4-(2-(4-(6-(bis(4-chlorophenyl)methyl)cinnolin-4-ylamino)piperidin-1-yl)ethyl)benzoic acid], the EC50 in assay [1] is > 10 µM; in assay [2], 6.64 µM.
As to `O=C(O)c1csc(S(=O)(=O)N2CCC(Nc3cnnc4ccc(C(c5ccc(Cl)cc5)c5ccc(Cl)cc5)cc34)CC2)c1` [Compound 32, 5-[4-([6-[bis(4-chlorophenyl)methyl]cinnolin-4-yl]amino)piperidine-1-sulfonyl]thiophene-3-carboxylic acid], the EC50 was 1.98 µM in assay [1] and 0.04 µM in assay [2].
For the molecule `CC(C)(C)OC(=O)N1CCC(Nc2cnnc3ccc(C(O)(c4ccc(Cl)cc4)c4ccc(Cl)cc4)cc23)CC1` [Compound 2, tert-butyl 4-((6-(bis(4-chlorophenyl)(hydroxy)methyl)cinnolin-4-yl)amino)piperidine-1-carboxylate], the 50% effective concentration (EC50) is > 10 µM in assay [1] and 0.2 µM in assay [2].
The matching figures for `Oc1ccc(CNc2cnnc3ccc(C(c4ccc(Cl)cc4)c4ccc(Cl)cc4)cc23)cc1` [Compound 21, 4-((6-(bis(4-chlorophenyl)methyl)cinnolin-4-ylamino)methyl)phenol]: 5.93 µM and 1.16 µM.
On to `Clc1ccc(C(c2ccc(Cl)cc2)c2ccc3nncc(NC4CCN(Cc5ccccc5)C4)c3c2)cc1` (centres unmarked) [Compound 28, N-(1-benzylpyrrolidin-3-yl)-6-(bis(4-chlorophenyl)methyl)cinnolin-4-amine], for which the concentration for a half-maximal effect (EC50) is > 10 µM in assay [1] and 1.69 µM in assay [2].
For `O=C(O)c1ccc(CCNc2cnnc3ccc(C(c4ccc(Cl)cc4)c4ccc(Cl)cc4)cc23)cc1` [Compound 37, 4-(2-(6-(bis(4-chlorophenyl)methyl)cinnolin-4-ylamino)ethyl)benzoic acid], the results for the EC50 in assay [1] and in assay [2] were 2.79 µM and 5.4 µM, respectively.
The matching figures for `O=S(=O)(c1ccccc1)N1CCC(Nc2cnnc3ccc(C(c4ccc(Cl)cc4)c4ccc(Cl)cc4)cc23)CC1` [Compound 4, 6-(bis(4-chlorophenyl)methyl)-N-(1-(phenylsulfonyl)piperidin-4-yl)cinnolin-4-amine]: > 10 µM and 0.035 µM.
For the molecule `O=C(O)c1cccc(CCNc2cnnc3ccc(C(c4ccc(Cl)cc4)c4ccc(Cl)cc4)cc23)c1` [Compound 38, 3-(2-(6-(bis(4-chlorophenyl)methyl)cinnolin-4-ylamino)ethyl)benzoic acid], the EC50 turned out to be 3.98 µM in assay [1] and 4.5 µM in assay [2].
Take `O=C(O)c1cccc(CCN2CCC(Nc3cnnc4ccc(C(c5ccc(Cl)cc5)c5ccc(Cl)cc5)cc34)CC2)c1` [Compound 23, 3-[2-[4-([6-[bis(4-chlorophenyl)methyl]cinnolin-4-yl]amino)piperidin-1-yl]ethyl]benzoic acid]: the EC50 was > 10 µM in assay [1] and 5.09 µM in assay [2].
Taken in the same sequence, the figures for `Clc1ccc(C(c2ccc(Cl)cc2)c2ccc3nncc(N4CCC(Nc5ccccc5)CC4)c3c2)cc1` [Compound 29, 1-[6-[bis(4-chlorophenyl)methyl]cinnolin-4-yl]-N-phenylpiperidin-4-amine] were > 10 µM and 0.099 µM.
Turning to `COc1ccc(C(c2ccc(Cl)cc2)c2ccc3nncc(NC4CCN(S(=O)(=O)C(F)(F)F)CC4)c3c2)cc1` (centres unmarked) [Compound 35, 6-((4-chlorophenyl)(4-methoxyphenyl)methyl)-N-(1-(trifluoromethylsulfonyl)piperidin-4-yl)cinnolin-4-amine], the values for the 50% effective concentration (EC50) in assay [1] and in assay [2] were 0.396 µM and 0.011 µM, respectively.
With `Clc1ccc(C(c2ccc(Cl)cc2)c2ccc3nncc(N4CCN(Cc5ccccc5)CC4)c3c2)cc1` [Compound 22, 4-(4-benzylpiperazin-1-yl)-6-(bis(4-chlorophenyl)methyl)cinnoline], the concentration for a half-maximal effect (EC50) in assay [1] was > 10 µM; in assay [2] it was 6.54 µM.
For `OC(c1ccc(Cl)cc1)(c1ccc(Cl)cc1)c1ccc2nncc(NCc3cccc(C(F)(F)F)c3)c2c1` [Compound 6, bis(4-chlorophenyl)(4-((3-(trifluoromethyl)benzyl)amino)cinnolin-6-yl)methanol], the EC50 in assay [1] was > 10 µM; in assay [2], 0.254 µM.
Take `O=C(c1ccccc1)N1CCC(Nc2cnnc3ccc(C(c4ccc(Cl)cc4)c4ccc(Cl)cc4)cc23)CC1` [Compound 3, (4-((6-(bis(4-chlorophenyl)methyl)cinnolin-4-yl)amino)piperidin-1-yl)(phenyl)methanone]: the results for the EC50 in assay [1] and in assay [2] were > 10 µM and 0.463 µM, respectively.
The matching figures for `O=S(=O)(N1CCN(c2cnnc3ccc(C(c4ccc(Cl)cc4)c4ccc(Cl)cc4)cc23)CC1)C(F)(F)F` [Compound 24, 6-[bis(4-chlorophenyl)methyl]-4-[4-(trifluoromethane)sulfonylpiperazin-1-yl]cinnoline]: > 10 µM and 0.261 µM.
Take `O=S(=O)(N1CCC(Nc2cnnc3ccc(C(c4ccc(Cl)cc4)c4ccc(Cl)cc4)cc23)CC1)C(F)(F)F` [Compound 5, 6-(bis(4-chlorophenyl)methyl)-N-(1-((trifluoromethyl)sulfonyl)piperidin-4-yl)cinnolin-4-amine]: the half-maximal effective concentration (EC50) was 3.35 µM in assay [1] and 0.013 µM in assay [2].
As to `O=C(O)c1ccc(S(=O)(=O)N2CCC(Nc3cnnc4ccc(C(c5ccc(Cl)cc5)c5ccc(Cl)cc5)cc34)CC2)o1` [Compound 14, 5-(4-(6-(bis(4-chlorophenyl)methyl)cinnolin-4-ylamino)piperidin-1-ylsulfonyl)furan-2-carboxylic acid], the EC50 was determined as 5.6 µM in assay [1] and 1.28 µM in assay [2].
With `O=C(O)c1ccccc1CN1CCC(Nc2cnnc3ccc(C(c4ccc(Cl)cc4)c4ccc(Cl)cc4)cc23)CC1` [Compound 18, 2-((4-(6-(bis(4-chlorophenyl)methyl)cinnolin-4-ylamino)piperidin-1-yl)methyl)benzoic acid], the figures for the concentration giving a half-maximal response (EC50) in assay [1] and in assay [2] were 9.9 µM and 9.5 µM, respectively.
For `O=S(=O)(N1CCC(Nc2cnnc3ccc(C(c4ccc(F)cc4)c4ccc(F)cc4)cc23)CC1)C(F)(F)F` [Compound 33, 6-(bis(4-fluorophenyl)methyl)-N-(1-(trifluoromethylsulfonyl)piperidin-4-yl)cinnolin-4-amine], the EC50 in assay [1] was 4.7 µM; in assay [2] it was 0.079 µM.
The matching figures for `O=C(O)c1ccc(CN2CCC(Nc3cnnc4ccc(C(c5ccc(Cl)cc5)c5ccc(Cl)cc5)cc34)CC2)s1` [Compound 15, 5-((4-(6-(bis(4-chlorophenyl)methyl)cinnolin-4-ylamino)piperidin-1-yl)methyl)thiophene-2-carboxylic acid]: 3.69 µM and 0.399 µM.

For orientation: EC50 means the concentration that produces a half-maximal response. Higher therefore signals a less potent agent.
